Ends that are not written are not given here.

Data on seven compounds can be found in patent US20100009860A1, “Device and method for analysis of interactions between biomolecules” (priority 2004, published 2010).

Test [1] concerns streptavidine. The following applies: cited from earlier work.
Test [2] deals with streptavidine-peptide/strep-tag II interaction. Kind of test: Inhibition of streptavidine-peptide/strep-tag II interactions on MG3 peptide-pair array, fluorescence read-out. Type of test: binding. The following applies: membrane incubated 30 min with agent (0.5 mM biotine) before analysis; excitation 366 nm, emission 510-530 nm. The method, then: The reading of the signal by fluorescence and the inhibition of the streptavidine-peptide/strep-tag II-interactions using the natural product biotine and their derivatives are shown.
A) The chemical structure of the exemplary molecular fork MG3.
The peptide being at the side of Fmoc was marked with a danysl-radical and the peptide being at the Aloc-side was marked with fluoresceine. The analysis was performed by detection of the light emission at 510-530 nm after excitation with light of a wave length of 366 nm using the Raytest DIANA chemiluminescence detection system. […]
Peptide pairs were synthesized at MG3 (FIG. 17A), whereby the constant peptide block strep-tag II was synthesized at the Aloc-side and marked with a fluoresceine radical. […] Differences in fluorescence properties of the spots were obtained with different peptide pairs, an enhanced fluorescence emission was detected for interacting peptide pairs.
For the inhibition of interaction of the peptide pairs, the modified membrane was treated with high-affinated, low-affine and non-affine agents with similar chemical properties before the analysis. […] Subsequently, the analysis of the fluorescence properties of the spots was carried out.

The target in test [3] is T1, FKBP12 (Mus musculus, UniProt P26883). The test can be described thus: Mapping of interaction region with peptide pairs on molecular fork MG2, FKBP12 as detection molecule. Type of test: binding. The following applies: 200 nM FKBP12, overlapping 13 mer FKBP12 peptides, 2-amino acid shift, cellulose. The method, then: A) The cellulose modified with peptide pairs by molecular forks MG2 was analyzed using 200 nM FKBP12 followed by Western Blot-analysis and immunodetection. The constant peptide block acetyl-KCPLLTAQFFEQS of FAP (Lys217-Ser229) was synthesized at the Dde-side. At the Fmoc-side, overlapping 13 mer peptides were synthesized spanning the entire FKBP12-sequence with a 2-amino acid shift. The densitometric analysis was performed using a GS-700 imaging densitometer (Bio-Rad). The ordinate represents the difference from the inverse value of the intensity of each spot and the inverse value of the average spot intensities. Large positive values correspond to a weak signal in the blot and show potential interactions within the peptide pair.
T1 sequence (P26883 whole entry): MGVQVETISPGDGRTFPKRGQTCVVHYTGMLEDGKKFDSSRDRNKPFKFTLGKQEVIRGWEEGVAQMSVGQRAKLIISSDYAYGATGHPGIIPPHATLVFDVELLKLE
B) The cellulose modified with peptide pairs by molecular forks MG2 was analyzed using 200 nM FKBP12 followed by the Western Blot-analysis and immunodetection. […] The ordinate represents the difference from the inverse value of the intensity of each analyzed spot and the inverse value of the average spot intensities. […]
The cellulose modified with peptide pairs by molecular forks MG2 was analyzed using 200 nM FKBP12 followed by the Western Blot-analysis and immunodetection. […] The ordinate represents the difference from the inverse value of the intensity of each analyzed spot and the inverse value of the average spot intensity. […]

Test [4] has as its target T1, FKBP12. Kind of test: Mapping of FKBP12 binding sites by classical SPOT-technology and protein interaction analysis. The settings on record: SPOT peptide scan of FAP48 / cytosolic domain of EGF-receptor. The source says:
In a first step, the FKBP12-binding sites in the FAP48 were mapped using classical SPOT-technology and protein interaction analysis.
In a first step, the FKBP12 binding sites in the cytosolic domain of the EGF-receptor (EGFR) were mapped by classical SPOT-technology and protein interaction analysis. […] Then, peptide pairs were synthesized at the MG12, as described in example 2, whereby the constant peptide block Ac-PHVCRLLGICLTS was synthesized at the Dde-side. At the Fmoc-side, overlapping 13 mer peptides were synthesized spanning the entwire FKBP12-sequence with a 2-aminoacid shift. In each case 48 individual spots resulted therefrom.

The target of test [5] is streptavidine (Streptomyces avidinii, UniProt P22629). The test can be described thus: Streptavidine/strep-tag II interaction using inhibition with biotine (Western blot, immunodetection). Type of test: binding. The settings on record: 60 μg streptavidine/6 μg biotine, 1 h pre-incubation. The method, then:
The cellulose, which was modified with peptide pairs corresponding to the embodiment shown in FIG. 7 by molecular forks MG1, was analyzed using the previously formed biotine/streptavidine-complex (60 μg streptavidine/6 μg biotine, 1 h pre-incubation) followed by Western Blot-analysis and immunodetection. A) Only just one side on the MG1 was attached to oligopeptides of the streptavidine-scans. The other side was modified by an acetylation reaction. B) Only just one side on the MG1 was attached to oligopeptides of the streptavidine-scan, and the strep-tag II-peptide was synthesized on the other side.
As described in example 2, peptide pairs were synthesized at the MG2, whereby the constant peptide block strep-tag II was synthesized at the Dde-side. At the Fmoc-side, overlapping 12 mer peptides were synthesized spanning the entire streptavidine-sequence with a 2-aminoacid shift. 60 μg streptavidine were pre-incubated using 6 μg biotine in the MP-buffer (30 mM tris-HCl, pH 7.6, 170 mM NaCl, 6.4 mM KCl, 0.05% Tween 20, 5% sucrose) for 60 min and it was subsequently incubated overnight at 4° C. while shaking with the cellulose. […]
A densitometric analysis of the intensities of each spot was performed by a GS-700 imaging densitometer (Bio-Rad) for quantifying the signals (FIG. 12).

Chain of streptavidine (Streptomyces avidinii, UniProt P22629) (P22629 25-183): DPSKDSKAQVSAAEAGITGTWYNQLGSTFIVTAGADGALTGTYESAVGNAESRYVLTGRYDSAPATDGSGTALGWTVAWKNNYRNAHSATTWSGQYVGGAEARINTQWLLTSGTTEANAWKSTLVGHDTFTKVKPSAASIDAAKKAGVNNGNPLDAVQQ

Take `N=C1N[C@H]2[C@H](CS[C@H]2CCCCC(=O)O)N1` [2-iminobiotine]: in the test on streptavidine [1], the Ka is 8e+06 M⁻¹.
For the compound `N[C@@H]1[C@H](CCCCC(=O)O)SC[C@@H]1N` [diaminobiotine], the “fluorescence emission of the spots (inhibition of peptide pair interaction)” value in test [2] is reported as “very similar to the original fluorescence behaviour without a pharmaceutical agent”.
“acetyl-PHVCRLLGICLTS (Ac-PHVCRLLGICLTS; cysteine pairing not given here)”: in the test with FKBP12 [3], the “interaction region in FKBP12” value was “Met21-Ser67”.
Turning to “PHVCRLLGICLTS (Ac-PHVCRLLGICLTS; cysteine pairing not given here)”, in the test with FKBP12 [4], the “interaction to FKBP12” value is listed as “particularly strong interacting”.
For “KCPLLTAQFFEQS (Ac-KCPLLTAQFFEQS; not fully specified)”, in the test with FKBP12 [4], the “interaction to FKBP12” value was “mediate an interaction to FKBP12”.
As to `O=C(O)CCCC[C@@H]1SC[C@@H]2NC(=O)N[C@@H]21` [biotine], at streptavidine [5], the “bond of the streptavidine on the strep-tag II-peptide” value is recorded as “blocked”. Besides, in test [2], the “fluorescence emission of the spots (inhibition of peptide pair interaction)” value is recorded as “decreased”.
Regarding “LSPLYLLQFNMGH (Ac-LSPLYLLQFNMGH; not fully specified)”, the “interaction to FKBP12” value with FKBP12 [4] is listed as “mediate an interaction to FKBP12”.
